{"source": "paper PMC4721142", "about": "“Randomized controlled studies on the efficacy of antiarthritic agents in inhibiting cartilage degeneration and pain associated with progression of osteoarthritis in the rat” (Arthritis Research & Therapy, 2016)", "key": {"[1]": {"tested_on": "MIA rat model of OA", "assay": "MIA trial 2 digital Randall-Selitto test (daily tacrolimus 0.3 or 0.6 mg/kg i.p., curcumin 50 mg/kg p.o., fluocinolone 0.01 mg/kg s.c.; weekly clonidine 0.1 mg/kg s.c.)", "format": "in vivo", "details": "day 14; tacrolimus 0.3 mg/kg, other drugs single dose", "method": "The digital Randall-Selitto (dRS) test is said to be a reliable and repeatable measure of neuropathic, bone, and inflammatory pain behavior in several different models, including those of arthritic or joint pain [29, 31, 32]. Baseline and posttreatment values were evaluated using a dRS test device (IITC Life Science, Woodland Hills, CA, USA). Animals were allowed to acclimate to the testing room before all experimentation and for a minimum of 30 minutes before testing. To ensure that their hind limbs were accessible, the animals were gently suspended in a restraint sling. The joint compression threshold was measured once at each time point for the ipsilateral and contralateral knee joints. Pressure was applied gradually over approximately 10 seconds to the medial and lateral aspects of the knee joint. Measurements were taken from the first observed behavior of vocalization, struggle, or withdrawal. A cutoff value of 600 g was used to prevent injury to the animal.\nFollowing isoflurane anesthesia, 50 μl (2 mg) of MIA was injected into the synovial space of the left knee. Animals were randomly assigned to groups, and pain behavior was assessed 7, 14, 21, and 28 days following MIA injection and intervention using WB with the Stoelting incapacitance meter (trial 1) or the dRS test (trials 2 and 3). […] Animals received MIA treatment and then saline control or therapeutic. […] Histopathology was performed at each time point and at study termination. All studies were conducted in accordance with the International Association for the Study of Pain Guidelines and were approved by the Algos Therapeutics, Inc. Institutional Animal Care and Use Committee (IACUC) before initiation. Those running the studies were blind to the treatments. See Additional file 1 for further details."}, "[2]": {"tested_on": "MMT/MCLT rat model of OA", "assay": "MMT/MCLT trial 1 histopathology (same doses)", "format": "in vivo", "set-up": "key to Tibial cartilage degeneration score, 3-zone total: sum of three tibial zone scores (each on 5-point scale); key to Total joint score w/o femur / Total joint score / Total joint score without femur: sum: cartilage degeneration scores + mean osteophyte score", "details": "for % decrease, bone score / % decrease, femoral cartilage degeneration score / % decrease, osteophyte measure / % decrease, osteophyte score / % decrease, significant degeneration width / % decrease, tibial score 3-zone total / % decrease, tibial score zone 1 / % decrease, tibial score zone 2 / % decrease, tibial score zone 3 / % decrease, total degeneration width / % decrease, total joint score / % decrease, total joint score w/o femur: vs saline group", "text": "For MMT/MCLT rat knee joints, sections were cut in 200-μm steps; stained with toluidine blue (also with a right and left half per section); and similarly analyzed for cartilage degeneration, proteoglycan loss, collagen damage, and osteophyte formation. Results were averaged across the three sections for an overall semiquantitative score. Regional differences across the tibial plateau were taken into consideration by dividing each section into three zones delineated using an ocular micrometer (outside, middle, and inside). Scores were based on the percentage of area affected within the zone.\nCartilage degeneration in the tibia was scored on a 5-point scale as detailed in the Methods section of Additional file 1. The total extent of degeneration of the tibial plateau was measured (in micrometers) and included an analysis of cell loss, proteoglycan loss, and collagen damage. Significant cartilage degeneration reflecting any degeneration extending through more than 50 % of the cartilage thickness was also measured. Collagen damage across the medial tibial plateau (the most severely affected section of the two halves) was also quantified.\nOsteophytes and femoral cartilage degeneration were analyzed as detailed in Additional file 1. Scoring of the osteophytes and categorization into small, medium, and large was performed using an ocular micrometer. The actual osteophyte measurement (tidemark to farthest distance point extending toward the synovium) was also recorded. The femoral cartilage degeneration score and the three-zone sum of the tibial cartilage degeneration scores (mean of three levels) were summed to create a total cartilage degeneration score. The mean osteophyte score for each joint was added to this value to create a total joint score. […]\nHistopathology MMT/MCLT Model"}, "[3]": {"details": "individual animals, fluocinolone 10 μg/kg, 21 days"}, "[4]": {"details": "mean, tacrolimus 0.6 mg/kg, fluocinolone 10 μg/kg"}, "[5]": {"details": "mean, tacrolimus 0.6 mg/kg, fluocinolone 10 μg/kg, listed as fluocinolone"}, "[6]": {"details": "vs group 1, fluocinolone 10 μg/kg"}, "[7]": {"details": "tacrolimus 0.6 mg/kg, fluocinolone 10 μg/kg"}}, "note": "Where “and” joins values, the source holds several entries; their conditions need not be identical. Equal entries are not always repeated. Marks after values point to notes of the source that are not given here."}
{"smiles": "CC1(C)O[C@@H]2C[C@H]3[C@@H]4C[C@H](F)C5=CC(=O)C=C[C@]5(C)[C@@]4(F)[C@@H](O)C[C@]3(C)[C@]2(C(=O)CO)O1", "note": "[Fluocinolone, Fluocinolone Acetonide]", "values": [{"measurement": "dRS, hours after dosing with significant difference", "setting": "[1]", "result": "5^e h"}, {"measurement": "Bone score", "setting": "[2]; [3]", "result": "3.00 and 2.00 and 4.00 and 1.00"}, {"measurement": "Femoral cartilage degeneration score", "setting": "[2]; [3]", "result": "1.00 and 2.00 and 3.00 and 2.33 and 1.33"}, {"measurement": "Tibial cartilage degeneration score, 3-zone total", "setting": "[2]; [3]", "result": "4.67 and 5.00 and 6.33 and 7.00 and 7.67 and 5.33 and 6.00"}, {"measurement": "Tibial cartilage degeneration score, zone 1", "setting": "[2]; [3]", "result": "3.00 and 4.33 and 3.33 and 4.67 and 4.00"}, {"measurement": "Tibial cartilage degeneration score, zone 2", "setting": "[2]; [3]", "result": "1.67 and 2.00 and 1.33 and 2.33 and 2.67"}, {"measurement": "Tibial cartilage degeneration score, zone 3", "setting": "[2]; [3]", "result": "0.00 and 0.33"}, {"measurement": "Tibial cartilage degeneration width, significant", "setting": "[2]; [3]", "result": "466.67 μm and 433.33 μm and 633.33 μm and 766.67 μm and 800.00 μm and 566.67 μm and 666.67 μm"}, {"measurement": "Tibial cartilage degeneration width, total", "setting": "[2]; [3]", "result": "1400.00 μm and 1066.67 μm and 1133.33 μm and 1000.00 μm and 1600.00 μm and 1266.67 μm and 1100.00 μm"}, {"measurement": "Tibial osteophyte measure", "setting": "[2]; [3]", "result": "333.33 μm and 413.33 μm and 280.00 μm and 426.67 μm and 586.67 μm and 400.00 μm and 380.00 μm"}, {"measurement": "Tibial osteophyte score", "setting": "[2]; [3]", "result": "2.00 and 2.33 and 3.00 and 1.33 and 4.67 and 2.67"}, {"measurement": "Total joint score", "setting": "[2]; [3]", "result": "7.67 and 8.33 and 11.33 and 9.00 and 12.33 and 15.33 and 9.67 and 10.67"}, {"measurement": "Total joint score without femur", "setting": "[2]; [3]", "result": "6.67 and 7.33 and 9.33 and 6.00 and 10.00 and 12.33 and 8.33 and 8.67"}, {"measurement": "Bone score", "setting": "[2]; mean, low or only dose", "result": 2.38}, {"measurement": "Femoral cartilage degeneration score", "setting": "[2]; mean, low or only dose", "result": "1.33 and 1.33 ± 0.14"}, {"measurement": "Tibial cartilage degeneration score, 3-zone total", "setting": "[2]; mean, low or only dose", "result": 6.08}, {"measurement": "Tibial cartilage degeneration score, zone 1", "setting": "[2]; mean, low or only dose", "result": 4.17}, {"measurement": "Tibial cartilage degeneration score, zone 2", "setting": "[2]; mean, low or only dose", "result": 1.88}, {"measurement": "Tibial cartilage degeneration score, zone 3", "setting": "[2]; mean, low or only dose", "result": 0.04}, {"measurement": "Tibial cartilage degeneration width, significant", "setting": "[2]; mean, low or only dose", "result": 608.33, "unit": "µm"}, {"measurement": "Tibial cartilage degeneration width, total", "setting": "[2]; mean, low or only dose", "result": 1154.17, "unit": "µm"}, {"measurement": "Tibial osteophyte measure", "setting": "[2]; mean, low or only dose", "result": 455.00, "unit": "µm"}, {"measurement": "Tibial osteophyte score", "setting": "[2]; mean, low or only dose", "result": 3.33}, {"measurement": "Total joint score", "setting": "[2]; mean, low or only dose", "result": "10.75 and 10.75 ± 0.61"}, {"measurement": "Total joint score w/o femur", "setting": "[2]; mean, low or only dose", "result": 9.42}, {"measurement": "Bone score", "setting": "[2]; [4]", "result": 2.63}, {"measurement": "Femoral cartilage degeneration score", "setting": "[2]; [4]", "result": "1.96 ± 0.77"}, {"measurement": "Tibial cartilage degeneration score, 3-zone total", "setting": "[2]; [4]", "result": 5.83}, {"measurement": "Tibial cartilage degeneration score, zone 1", "setting": "[2]; [4]", "result": 3.88}, {"measurement": "Tibial cartilage degeneration score, zone 2", "setting": "[2]; [4]", "result": 1.92}, {"measurement": "Tibial cartilage degeneration score, zone 3", "setting": "[2]; [4]", "result": 0.04}, {"measurement": "Tibial cartilage degeneration width, significant", "setting": "[2]; [4]", "result": 595.83, "unit": "μm"}, {"measurement": "Tibial cartilage degeneration width, total", "setting": "[2]; [4]", "result": 1212.50, "unit": "μm"}, {"measurement": "Tibial osteophyte measure", "setting": "[2]; [4]", "result": 394.17, "unit": "μm"}, {"measurement": "Tibial osteophyte score", "setting": "[2]; [4]", "result": 2.75}, {"measurement": "Total joint score", "setting": "[2]; [4]", "result": "10.54 ± 0.88"}, {"measurement": "Total joint score w/o femur", "setting": "[2]; [4]", "result": 8.58}, {"measurement": "Femoral cartilage degeneration score", "setting": "[2]; [5]", "result": 1.96}, {"measurement": "Total joint score", "setting": "[2]; [5]", "result": 10.54}, {"measurement": "% increase, area of viable cartilage matrix", "setting": "[2]; tacrolimus 0.3 mg/kg, fluocinolone 5 ug/kg", "result": 17, "unit": "%"}, {"measurement": "% increase, area of viable cartilage matrix", "setting": "[2]; tacrolimus 0.6 mg/kg, fluocinolone 10 ug/kg", "result": 20, "unit": "%"}, {"measurement": "Percentage, bone score", "setting": "[2]; [6]", "result": 0.19}, {"measurement": "Percentage, femoral cartilage degeneration score", "setting": "[2]; [6]", "result": "−0.07"}, {"measurement": "Percentage, osteophyte measure", "setting": "[2]; [6]", "result": 0.23}, {"measurement": "Percentage, osteophyte score", "setting": "[2]; [6]", "result": 0.30}, {"measurement": "Percentage, significant degeneration width", "setting": "[2]; [6]", "result": 0.18}, {"measurement": "Percentage, tibial score zone 1", "setting": "[2]; [6]", "result": 0.10}, {"measurement": "Percentage, tibial score zone 2", "setting": "[2]; [6]", "result": 0.13}, {"measurement": "Percentage, tibial score zone 3", "setting": "[2]; [6]", "result": 0.00}, {"measurement": "Percentage, total degeneration width", "setting": "[2]; [6]", "result": 0.08}, {"measurement": "Percentage, total joint score", "setting": "[2]; [6]", "result": 0.14}, {"measurement": "Percentage, total joint score without femur", "setting": "[2]; [6]", "result": 0.18}, {"measurement": "% decrease, bone score", "setting": "[2]; low or only dose", "result": 27, "unit": "%"}, {"measurement": "% decrease, femoral cartilage degeneration score", "setting": "[2]; low or only dose", "result": 27, "unit": "%"}, {"measurement": "% decrease, osteophyte measure", "setting": "[2]; low or only dose", "result": 11, "unit": "%"}, {"measurement": "% decrease, osteophyte score", "setting": "[2]; low or only dose", "result": 15, "unit": "%"}, {"measurement": "% decrease, significant degeneration width", "setting": "[2]; low or only dose", "result": 16, "unit": "%"}, {"measurement": "% decrease, tibial score 3-zone total", "setting": "[2]; low or only dose", "result": 7, "unit": "%"}, {"measurement": "% decrease, tibial score zone 1", "setting": "[2]; low or only dose", "result": 3, "unit": "%"}, {"measurement": "% decrease, tibial score zone 2", "setting": "[2]; low or only dose", "result": 15, "unit": "%"}, {"measurement": "% decrease, tibial score zone 3", "setting": "[2]; low or only dose", "result": 0, "unit": "%"}, {"measurement": "% decrease, total degeneration width", "setting": "[2]; low or only dose", "result": 12, "unit": "%"}, {"measurement": "% decrease, total joint score", "setting": "[2]; low or only dose", "result": 13, "unit": "%"}, {"measurement": "% decrease, total joint score w/o femur", "setting": "[2]; low or only dose", "result": 10, "unit": "%"}, {"measurement": "% decrease, bone score", "setting": "[2]; [7]", "result": 19, "unit": "%"}, {"measurement": "% decrease, femoral cartilage degeneration score", "setting": "[2]; [7]", "result": -7, "unit": "%"}, {"measurement": "% decrease, osteophyte measure", "setting": "[2]; [7]", "result": 23, "unit": "%"}, {"measurement": "% decrease, osteophyte score", "setting": "[2]; [7]", "result": 30, "unit": "%"}, {"measurement": "% decrease, significant degeneration width", "setting": "[2]; [7]", "result": 18, "unit": "%"}, {"measurement": "% decrease, tibial score 3-zone total", "setting": "[2]; [7]", "result": 11, "unit": "%"}, {"measurement": "% decrease, tibial score zone 1", "setting": "[2]; [7]", "result": 10, "unit": "%"}, {"measurement": "% decrease, tibial score zone 2", "setting": "[2]; [7]", "result": 13, "unit": "%"}, {"measurement": "% decrease, tibial score zone 3", "setting": "[2]; [7]", "result": 0, "unit": "%"}, {"measurement": "% decrease, total degeneration width", "setting": "[2]; [7]", "result": 8, "unit": "%"}, {"measurement": "% decrease, total joint score", "setting": "[2]; [7]", "result": 14, "unit": "%"}, {"measurement": "% decrease, total joint score w/o femur", "setting": "[2]; [7]", "result": 18, "unit": "%"}]}
